This note sets out measurements from patent US20220348877A1, “GENERATION OF QUIESCENT CARDIAC FIBROBLASTS FROM HUMAN INDUCED PLURIPOTENT STEM CELLS FOR IN VITRO MODELING OF CARDIAC FIBROSIS” (The Board of Trustees of the Leland Stanford Junior …, priority 2019, published 2022).

The test system of test [1] is human iPSC-CFs. The test can be described thus: Collagen gel contraction assay. Format: cell-based. The note with it: gels imaged after 24 hrs. Here is the method:
Gel contraction assay. Collagen gel contraction assays were performed in three independent lines of iPSC-CFs (2.0×10^5 cells per well) using a Cell Contraction Assay kit (CBA5020, Cell Biolabs) as per the manufacturer's protocol. The cells were treated in the absence or presence of TGF-β±a TGF-β inhibitor SB431542 (SB). The gels were imaged after 24 hrs and gel area was quantified using ImageJ software (version 1.49).

In test [2] the test system is human iPSC-CFs. The test can be described thus: Quantitative real-time PCR of gene expression in drug-treated iPSC-CFs. Format: cell-based. How it is done: Quantitative real-time PCR. Total RNA was isolated using the Qiagen miRNeasy Mini Kit (Qiagen Sciences, Inc, Germantown, Md.) following the manufacturer's instruction. For reverse transcription, a High Capacity RNA-to-cDNA kit (Life Technologies) was used, and the cDNA template was synthesized based on 1 μg of total mRNA. After mixing 0.2 μl of the cDNA template, 1 μl of TaqMan® primer sets (Life Technologies), 10 μl of TaqMan® Master Mix (Life Technologies), and 8.8 μl of ddH2O in the reaction system, real-time quantitative PCR was performed on the StepOne™ Real-Time PCR System (Life Technologies). Each reaction was run in triplicate. Expression values were normalized to the average expression of GAPDH.
(§1) Drug treatment. Unless otherwise stated, cells were treated with all drugs for 48 hrs. We used 5 ng/ml of TGFβ1 (240-B-010, R&D) to activate iPSC-CFs. Due to the short half-life, BNP (CYT-369, Prospec) was added into the medium three times a day. We used 20 μM of sacubitril (SML1380, Sigma) to inhibit ANP/BNP degradation. We used pirfenidone (S2907, Selleck Chemicals) and doxorubicin (25316-40-9, Selleck Chemicals) to test their anti-fibrotic and pro-fibrotic effects on iPSC-CFs, respectively.

In test [3] the test system is human iPSC-CFs. Kind of test: Immunoblotting of α-SMA in drug-treated iPSC-CFs. The format is cell-based. The note with it: CFs from different human iPSC lines. Here is the method:
Immunoblotting and quantification. Cultured cells were homogenized in the RIPA buffer with proteinase and phosphatase inhibitor cocktails (78440, ThermoFisher), and quantified by Pierce™ BCA Protein Assay Kit (Pierce Biotechnology Inc.). A total of 20 μg protein was separated on NuPAGE® Novex® 4-12% Bis-Tris Protein Gels (Invitrogen, Carlsbad, Calif.). After being transferred to Amersham™ Hybond™ Blotting Membranes (GE Healthcare), proteins were incubated with primary antibodies against α-SMA (ab7817, Abcam), periostin (ab14041, Abcam), collagen Ill (ab7778, Abcam), fibronectin (ab6328, Abcam), MYH7 (sc-53089, Santa Cruz), and GAPDH (MA5-15738, Invitrogen). Band intensities for target bands were analyzed and quantified by the ImageJ Fuji program.
as §1

Test [4] has as its system human iPSC-CFs. Kind of test: Sirius red colorimetric assay of secreted collagen, iPSC-CFs. Format: cell-based. To be noted: 48 hrs. Here is the method:
Colorimetric assays. The cells were treated in the absence or presence of TGF-β for 48 hrs. Quantification of total secreted collagen in the cell culture supernatant was performed using a Sirius red collagen detection kit (9062, Chondrex). The colorimetric assay was performed according to the manufacturer's protocol.

Test [5] concerns primary CFs. Kind of test: Sirius red colorimetric assay of secreted collagen, primary CFs. The format is cell-based, human. To be noted: 48 hrs. Here is the method: (§2) Human primary skin, cardiac, lung, bladder fibroblast, and brain pericyte cultures. Human primary cardiac fibroblasts were isolated and cultured as follows: a piece of fresh right atrial biopsy was weighed, minced into small pieces (1-2 mm^3), and digested in 6-well peri-dishes as described. Human primary cardiac fibroblasts were grown and maintained in a fibroblast growth medium (C-23025, Promocell) supplemented with 1% penicillin-streptomycin (15140-122, Gibco) in a humidified atmosphere (95% air, 5% CO2) at 37° C. The medium was renewed every 2-3 days. Cells were passaged using standard trypsinization techniques at 80-90% confluency. The same protocol was also used to isolate and culture fibroblasts from human skin and lung tissues. Primary bladder fibroblasts were purchased from Lifeline (FC-0050) and maintained in the same fibroblast growth medium. Human brain pericytes were purchased from Cell systems (ACBRI 498) and cultured in SmGM-2 medium (Lonza, CC-3182). All experiments were carried out using cells at low cell passages (<P4) and cells were serum-starved for 24 hrs before treatment.
Colorimetric assays. The cells were treated in the absence or presence of TGF-β for 48 hrs. Quantification of total secreted collagen in the cell culture supernatant was performed using a Sirius red collagen detection kit (9062, Chondrex). […]

For another test, the system named is human primary CFs. Kind of test: Quantitative real-time PCR of cardiac-specific genes in primary CFs. Format: cell-based. Here is the method: as §2, with “All experiments were carried out using cells at low cell passages (<P4) and cells were serum-starved for 24 hrs before treatment.” left out
Quantitative real-time PCR. […] After mixing 0.2 μl of the cDNA template, 1 μl of TaqMan® primer sets (Life Technologies), 10 μl of TaqMan® Master Mix (Life Technologies), and 8.8 μl of ddH2O in the reaction system, real-time quantitative PCR was performed on the StepOne™ Real-Time PCR System (Life Technologies). […]

The test system of test [6] is human iPSC-CFs. The test can be described thus: In vitro wound-healing assay, iPSC-CFs. The format is cell-based. To be noted: 25 ng/ml, 24-hour observation. How it is done: In vitro wound-healing assay. The migration of human iPSC-CFs and primary CFs was determined using a Cytoselect™ 24-Well Wound Healing Assay Kit (CBA-120, Cell Biolabs). Briefly, after confluent monolayers of CFs were formed, cells were synchronized in a low serum medium (0.5% FBS) for 24 hrs. After the wound-generating scaffold was removed from each well, cells were washed in PBS to remove residual cells in the wounded area. Cells were treated with vehicle or PDGF-BB (25 ng/ml), and images were captured using a light microscope in identical areas at baseline, 12 hrs, and 24 hrs post-treatment. The cell-free areas at each time point were measured by Image-Pro Plus (version 6.0, Media Cybernetics). For quantification purposes, the wound area generated at 0 hr was set as S0, the uncovered areas captured at 12 hrs, and 24 hrs were recorded as Si (i=12 or 24). The wound closure rate was then calculated by the following equation: wound closure rate

The test system of test [7] is primary CFs. Kind of test: In vitro wound-healing assay, primary CFs. Format: cell-based, human. To be noted: 25 ng/ml, 24-hour observation. Here is the method:
as §2, with “Human brain pericytes were purchased from Cell systems (ACBRI 498) and cultured in SmGM-2 medium (Lonza, CC-3182). All experiments were carried out using cells at low cell passages (<P4) and cells were serum-starved for 24 hrs before treatment.” left out
In vitro wound-healing assay. The migration of human iPSC-CFs and primary CFs was determined using a Cytoselect™ 24-Well Wound Healing Assay Kit (CBA-120, Cell Biolabs). […] The cell-free areas at each time point were measured by Image-Pro Plus (version 6.0, Media Cybernetics). For quantification purposes, the wound area generated at 0 hr was set as S0, the uncovered areas captured at 12 hrs, and 24 hrs were recorded as Si (i=12 or 24). The wound closure rate was then calculated by the following equation: wound closure rate

On to transforming growth factor-β [TGF-β], for which the “collagen gel contraction effect vs vehicle group” value with human iPSC-CFs [1] is “stronger”. Further, the “expression levels of ACTA2 and POSTN vs vehicle treatment” value in the test on human iPSC-CFs [2] (5 ng/ml TGFβ1, 48 hrs) is “significantly increased”. For the same molecule, in the test with human iPSC-CFs [2] (vs vehicle), the “expression levels of ECM genes COL1A1, COL3A1, COL4A2, FN1” value was “significantly increased”; the “expression of MMP1” value is reported as “downregulation”; the “expression of MMP2” value is on record as “upregulation”; the “expression of TIMP1, TIMP2, TIMP3” value was “upregulation”. In addition, the “expression of proteoglycans (VCAN, CTGF, KAL1, TNC, SPARC) and focal adhesion molecules (ITGA4, ITGA5, ITGB5)” value in the test on human iPSC-CFs [2] (vs vehicle) was “upregulated expression”. Further, in the test with human iPSC-CFs [3], the “α-SMA protein levels after treatment” value was “significantly increased”. The secreted collagen content entry in the test on human iPSC-CFs [4] is “rise in collagen content”. Besides, the secreted collagen content entry in the test with primary CFs [5] is on record as “rise in collagen content”. In the test with human primary CFs, the “expression levels of cardiac-specific genes (GATA4, TBX20, TCF21) vs vehicle-treated cells” value was “significantly downregulated”.

B1: platelet derived growth factor-BB: platelet derived growth factor-BB, migration stimulus (protein, UniProt P01127 82-190, looked up)
Platelet-derived growth …: SLGSLTIAEPAMIAECKTRTEVFEISRRLIDRTNANFLVWPPCVEVQRCSGCCNNRNVQCRPTQVQLRPVQVRKIEIVRKKPIFKKATVTLEDHLACKCETVAAARPVT
On to B1, for which the “cell migration (wound closure)” value in the test on human iPSC-CFs [6] and in the test on primary CFs [7] was “induced cell migration” each time.
